Measurements reported in patent US11180504B2 (ORCHID PHARMA LTD., priority 2016, dated 2021).
Converted amounts (≈) assume the structure as drawn. Like-named read-outs stand apart in the source and are kept apart here.

Assays:
[1] = tested on: methicillin-sensitive Staphylococcus aureus; assay: MIC by broth micro-dilution (CLSI), methicillin-sensitive S. aureus; type: cell-based; settings: MSSA S. aureus ATCC29213
[2] = tested on: carbapenem sensitive Escherichia coli; assay: MIC by broth micro-dilution (CLSI), carbapenem sensitive E. coli; type: cell-based
[3] = tested on: carbapenemase producing K. pneumoniae; assay: MIC by broth micro-dilution (CLSI), carbapenemase producing K. pneumoniae; type: cell-based, Klebsiella pneumoniae
[4] = tested on: carbapenem sensitive Pseudomonas aeruginosa; assay: MIC by broth micro-dilution (CLSI), carbapenem sensitive P. aeruginosa; type: cell-based
[5] = Staphylococcus aureus, ATCC 29213 / MSSA, read-out: MIC
[6] = Escherichia coli, ATCC25922, ESBL −ve E. coli ATCC25922, read-out: MIC
[7] = Klebsiella pneumoniae, ATCCBAA1705, KPC-2 K. pneumoniae ATCC BAA-1705, read-out: MIC
[8] = Pseudomonas aeruginosa, ATCC27853, Meropenem susceptible P. aeruginosa ATCC27853, read-out: MIC
[9] = KPC-2 K. pneumoniae ATCC BAA-1705
[10] = Meropenem susceptible P. aeruginosa ATCC27853

MIC [1, 5] [µg/mL]	MIC [2, 6] [µg/mL]	MIC [3, 7] [µg/mL]	MIC [4, 8] [µg/mL]	MIC [1] [µg/mL]	MIC ([2]; ESBL −ve E. coli ATCC25922) [µg/mL]	MIC [3, 9] [µg/mL]	MIC [4, 10] [µg/mL]	Compound
4 (≈ 6.2 µM)	0.5 (≈ 0.775 µM)	4 (≈ 6.2 µM)	2 (≈ 3.1 µM)	–	–	–	–	C[C@@H](NC(=O)Cn1cnnn1)[C@H]1C(=O)N2C(C(=O)O)=C(S[C@@H]3CN[C@H](C(=O)N4CCC(C(=O)N5CC[C@@H](N)C5)CC4)C3)[C@H](C)[C@H]12 [Example 428, (4R,5S,6R)-6-((R)-1-(2-(1H-tetrazol-1-yl)acetamido)ethyl)-3-((3S,5S)-5-(4-((R)-3-aminopyrrolidine-1-carbonyl)piperidine-1-carbonyl)pyrrolidin-3-ylthio)-4-methyl-7-oxo-1-azabicyclo[3.2.0]hept-2-ene-2-carboxylic acid]
4 (≈ 6.79 µM)	0.25 (≈ 0.425 µM)	2 (≈ 3.4 µM)	2 (≈ 3.4 µM)	–	–	–	–	C[C@@H](NC(=O)Cn1cnnn1)[C@H]1C(=O)N2C(C(=O)O)=C(S[C@@H]3CN[C@H](C(=O)N4CC(N5CCNCC5)C4)C3)[C@H](C)[C@H]12 [Example 429, (4R,5S,6R)-6-((R)-1-(2-(1H-tetrazol-1-yl)acetamido)ethyl)-4-methyl-7-oxo-3-((3S,5S)-5-(3-(piperazin-1-yl)azetidine-1-carbonyl)pyrrolidin-3-ylthio)-1-azabicyclo[3.2.0]hept-2-ene-carboxylic acid]
2 (≈ 3.23 µM)	0.25 (≈ 0.404 µM)	1 (≈ 1.62 µM)	1 (≈ 1.62 µM)	–	–	–	–	C[C@@H](NC(=O)Cn1cnnn1)[C@H]1C(=O)N2C(C(=O)O)=C(S[C@@H]3CN[C@H](C(=O)N4CCN(CCNC(=N)N)CC4)C3)[C@H](C)[C@H]12 [Example 432, (4R,5S,6R)-6-((R)-1-(2-(1H-tetrazol-1-yl)acetamido)ethyl)-3-((3S,5S)-5-(4-(2-guanidinoethyl)piperazine-1-carbonyl)pyrrolidin-3-ylthio)-4-methyl-7-oxo-1-azabicyclo[3.2.0]hept-2-ene-2-carboxylic acid]
2 (≈ 3.1 µM)	0.5 (≈ 0.774 µM)	2 (≈ 3.1 µM)	2 (≈ 3.1 µM)	–	–	–	–	C[C@@H](NC(=O)Cn1cnnn1)[C@H]1C(=O)N2C(C(=O)O)=C(S[C@@H]3CN[C@H](C(=O)N4CCN(C(=O)[C@H]5C[C@@H](N)CN5)CC4)C3)[C@H](C)[C@H]12 [Example 434, (4R,5S,6R)-6-((R)-1-(2-(1H-tetrazol-1-yl)acetamido)ethyl)-3-((3S,5S)-5-(4-((2R,4R)-4-aminopyrrolidine-2-carbonyl)piperazine-1-carbonyl)pyrrolidin-3-ylthio)-4-methyl-7-oxo-1-azabicyclo[3.2.0]hept-2-ene-2-carboxylic acid]
4 (≈ 6.61 µM)	0.5 (≈ 0.827 µM)	2 (≈ 3.31 µM)	1 (≈ 1.65 µM)	–	–	–	–	C[C@@H](NC(=O)Cn1cnnn1)[C@H]1C(=O)N2C(C(=O)O)=C(S[C@@H]3CN[C@H](C(=O)N4CCC(CNCCN)CC4)C3)[C@H](C)[C@H]12 [Example 443, (4R,5S,6R)-6-((R)-1-(2-(1H-tetrazol-1-yl)acetamido)ethyl)-3-((3S,5S)-5-(4-((2-aminoethylamino)methyl)piperidine-1-carbonyl)pyrrolidin-3-ylthio)-4-methyl-7-oxo-1-azabicyclo[3.2.0]hept-2-ene-2-carboxylic acid]
2 (≈ 3.55 µM)	0.5 (≈ 0.889 µM)	2 (≈ 3.55 µM)	2 (≈ 3.55 µM)	–	–	–	–	C[C@@H](NC(=O)Cn1cnnn1)[C@H]1C(=O)N2C(C(=O)O)=C(S[C@@H]3CN[C@H](C(=O)N4C[C@H](N)C[C@H]4CN)C3)[C@H](C)[C@H]12 [Example 444]

More lines, now with the values behind:

Compound	MIC [1, 5] [µg/mL]	MIC [2, 6] [µg/mL]	MIC [3, 7] [µg/mL]	MIC [4, 8] [µg/mL]	MIC [1] [µg/mL]	MIC ([2]; ESBL −ve E. coli ATCC25922) [µg/mL]	MIC [3, 9] [µg/mL]	MIC [4, 10] [µg/mL]
C[C@@H](NC(=O)Cn1cnnn1)[C@H]1C(=O)N2C(C(=O)O)=C(S[C@@H]3CN[C@H](C(=O)N4CCC(C(=O)N5CCNCC5)CC4)C3)[C@H](C)[C@H]12 [Example 430, (4R,5S,6R)-6-((R)-1-(2-(1H-tetrazol-1-yl)acetamido)ethyl)-4-methyl-7-oxo-3-((3S,5S)-5-(4-(piperazine-1-carbonyl)piperidine-1-carbonyl)pyrrolidin-3-ylthio)-1-azabicyclo[3.2.0]hept-2-ene-2-carboxylic acid]	4 (≈ 6.2 µM)	0.5 (≈ 0.775 µM)	2 (≈ 3.1 µM)	4 (≈ 6.2 µM)	–	–	–	–
C[C@@H](NC(=O)Cn1cnnn1)[C@H]1C(=O)N2C(C(=O)O)=C(S[C@@H]3CN[C@H](C(=O)N4C[C@@H](O)[C@@H](N)C4)C3)[C@H](C)[C@H]12 [Example 431, (4R,5S,6R)-6-((R)-1-(2-(1H-tetrazol-1-yl)acetamido)ethyl)-3-((3S,5S)-5-((3S,4R)-3-amino-4-hydroxypyrrolidine-1-carbonyl)pyrrolidin-3-ylthio)-4-methyl-7-oxo-1-azabicyclo[3.2.0]hept-2-ene-2-carboxylic acid]	2 (≈ 3.64 µM)	0.25 (≈ 0.455 µM)	0.5 (≈ 0.91 µM)	1 (≈ 1.82 µM)	–	–	–	–
C[C@@H](NC(=O)Cn1cnnn1)[C@H]1C(=O)N2C(C(=O)O)=C(S[C@@H]3CN[C@H](C(=O)N4CCC(N)C(F)C4)C3)[C@H](C)[C@H]12 (stereo partly drawn) [Example 433, (4R,5S,6R)-6-((R)-1-(2-(1H-tetrazol-1-yl)acetamido)ethyl)-3-((3S,5S)-5-(4-amino-3-fluoropiperidine-1-carbonyl)pyrrolidin-3-ylthio)-4-methyl-7-oxo-1-azabicyclo[3.2.0]hept-2-ene-2-carboxylic acid]	–	–	–	–	2 (≈ 3.54 µM)	0.25 (≈ 0.442 µM)	1 (≈ 1.77 µM)	1 (≈ 1.77 µM)
C[C@@H](NC(=O)Cn1cnnn1)[C@H]1C(=O)N2C(C(=O)O)=C(S[C@@H]3CN[C@H](C(=O)N4CCC5(CCNC5)CC4)C3)[C@H](C)[C@H]12 [Example 435, (4R,5S,6R)-6-((R)-1-(2-(1H-tetrazol-1-yl)acetamido)ethyl)-3-((3S,5S)-5-(2,8-diazaspiro[4.5]decane-8-carbonyl)pyrrolidin-3-ylthio)-4-methyl-7-oxo-1-azabicyclo[3.2.0]hept-2-ene-2-carboxylic acid]	2 (≈ 3.4 µM)	0.25 (≈ 0.425 µM)	1 (≈ 1.7 µM)	1 (≈ 1.7 µM)	–	–	–	–
C[C@@H](NC(=O)Cn1cnnn1)[C@H]1C(=O)N2C(C(=O)O)=C(S[C@@H]3CN[C@H](C(=O)N(CCO)CCO)C3)[C@H](C)[C@H]12 [Example 436, (4R,5S,6R)-6-((R)-1-(2-(1H-tetrazol-1-yl)acetamido)ethyl)-3-((3S,5S)-5-(bis(2-hydroxyethyl)carbarnoyl)pyrrolidin-3-ylthio)-4-methyl-7-oxo-1-azabicyclo[3.2.0]hept-2-ene-2-carboxylic acid]	8 (≈ 14.5 µM)	0.25 (≈ 0.452 µM)	1 (≈ 1.81 µM)	8 (≈ 14.5 µM)	–	–	–	–
C[C@@H](NC(=O)Cn1cnnn1)[C@H]1C(=O)N2C(C(=O)O)=C(S[C@@H]3CN[C@H](C(=O)N4CCC(CNCC(N)=O)CC4)C3)[C@H](C)[C@H]12 [Example 437, (4R,5S,6R)-6-((R)-1-(2-(1H-tetrazol-1-yl)acetamido)ethyl)-3-((3S,5S)-5-(4-((2-amino-2-oxoethylamino)methyl)piperidine-1-carbonyl)pyrrolidin-3-ylthio)-4-methyl-7-oxo-1-azabicyclo[3.2.0]hept-2-ene-2-carboxylic acid]	2 (≈ 3.23 µM)	0.25 (≈ 0.404 µM)	1 (≈ 1.62 µM)	2 (≈ 3.23 µM)	–	–	–	–
C[C@@H](NC(=O)Cn1cnnn1)[C@H]1C(=O)N2C(C(=O)O)=C(S[C@@H]3CN[C@H](C(=O)N4CCC5CNCCC54)C3)[C@H](C)[C@H]12 (stereo partly drawn) [Example 439, (4R,5S,6R)-6-((R)-1-(2-(1H-tetrazol-1-yl)acetamido)ethyl)-4-methyl-3-((3S,5S)-5-(octahydro-1H-pyrrolo[3,2-c]pyridine-1-carbonyl)pyrrolidin-3-ylthio)-7-oxo-1-azabicyclo[3.2.0]hept-2-ene-2-carboxylic acid]	–	–	–	–	2 (≈ 3.49 µM)	0.25 (≈ 0.436 µM)	1 (≈ 1.74 µM)	1 (≈ 1.74 µM)
C[C@@H](NC(=O)Cn1cnnn1)[C@H]1C(=O)N2C(C(=O)O)=C(S[C@@H]3CN[C@H](C(=O)N4C[C@H](N)C[C@H]4CO)C3)[C@H](C)[C@H]12 [Example 440, (4R,5S,6R)-6-((R)-1-(2-(1H-tetrazol-1-yl)acetamido)ethyl)-3-((3S,5S)-5-((2S,4R)-4-amino-2-(hydroxymethyl)pyrrolidine-1-carbonyl)pyrrolidin-3-ylthio)-4-methyl-7-oxo-1-azabicyclo[3.2.0]hept-2-ene-2-carboxylic acid]	2 (≈ 3.55 µM)	0.25 (≈ 0.444 µM)	1 (≈ 1.77 µM)	1 (≈ 1.77 µM)	–	–	–	–
C[C@@H](NC(=O)Cn1cnnn1)[C@H]1C(=O)N2C(C(=O)O)=C(S[C@@H]3CN[C@H](C(=O)N4C[C@@H](N)C[C@H]4CNS(C)(=O)=O)C3)[C@H](C)[C@H]12 [Example 441, (4R,5S,6R)-6-((R)-1-(2-(1H-tetrazol-1-yl)acetamido)ethyl)-3-((3S,5S)-5-((2S,4S)-4-amino-2-(methylsulfonamido-methyl)pyrrolidine-1-carbonyl)pyrrolidin-3-ylthio)-4-methyl-7-oxo-1-azabicyclo[3.2.0]hept-2-ene-2-carboxylic acid]	4 (≈ 6.24 µM)	0.25 (≈ 0.39 µM)	2 (≈ 3.12 µM)	8 (≈ 12.5 µM)	–	–	–	–
C[C@@H](NC(=O)Cn1cnnn1)[C@H]1C(=O)N2C(C(=O)O)=C(S[C@@H]3CN[C@H](C(=O)N4CCN(C[C@@H](O)CN)CC4)C3)[C@H](C)[C@H]12 [Example 442, (4R,5S,6R)-6-((R)-1-(2-(1H-tetrazol-1-yl)acetamido)ethyl)-3-((3S,5S)-5-(4-((S)-3-amino-2-hydroxypropyl)piperazioe-1-carbonyl)pyrrolidin-3-ylthio)-4-methyl-7-oxo-1-azabicyclo[3.2.0]hept-2-ene-2-carboxylic acid]	2 (≈ 3.3 µM)	0.125 (≈ 0.206 µM)	1 (≈ 1.65 µM)	0.5 (≈ 0.824 µM)	–	–	–	–
